Source: PubChem BioAssay (NCI)
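These data come from cells grown in 96-well plates and exposed to compound for 48 hours at five concentrations. Here, GI50 denotes the concentration required for 50% inhibition of growth. Definition used: TGI = concentration required for complete inhibition of growth.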

Experiments:
Test in all cases: inhibition of tumour cell growth, NCI panel, 48 h
NCI/ADR-RES ovarian = tested on: NCI/ADR-RES ovarian
SNB-19 CNS = tested on: SNB-19 CNS
OVCAR-8 ovarian = tested on: OVCAR-8 ovarian
RXF 393 renal = tested on: RXF 393 renal
SF-295 CNS = tested on: SF-295 CNS
U251 CNS = tested on: U251 CNS
HCT-15 colon = tested on: HCT-15 colon
M14 melanoma = tested on: M14 melanoma
UACC-257 melanoma = tested on: UACC-257 melanoma
NCI-H226 lung = tested on: NCI-H226 lung
DU-145 prostate = tested on: DU-145 prostate
SK-OV-3 ovarian = tested on: SK-OV-3 ovarian
HT29 colon = tested on: HT29 colon
SN12C renal = tested on: SN12C renal
KM12 colon = tested on: KM12 colon
IGROV1 ovarian = tested on: IGROV1 ovarian
HCC-2998 colon = tested on: HCC-2998 colon
LOX IMVI melanoma = tested on: LOX IMVI melanoma
UO-31 renal = tested on: UO-31 renal
A498 renal = tested on: A498 renal
A549 NSCLC = tested on: A549 NSCLC
SW-620 colon = tested on: SW-620 colon
K-562 leukemia = tested on: K-562 leukemia
CAKI-1 renal = tested on: CAKI-1 renal
ACHN renal = tested on: ACHN renal
CCRF-CEM leukemia = tested on: CCRF-CEM leukemia
OVCAR-4 ovarian = tested on: OVCAR-4 ovarian
UACC-62 melanoma = tested on: UACC-62 melanoma
SF-539 CNS = tested on: SF-539 CNS
BT-549 breast = tested on: BT-549 breast
MDA-MB-468 breast = tested on: MDA-MB-468 breast
T-47D breast = tested on: T-47D breast
MCF7 breast = tested on: MCF7 breast
MOLT-4 leukemia = tested on: MOLT-4 leukemia
NCI-H460 lung = tested on: NCI-H460 lung
SF-268 CNS = tested on: SF-268 CNS
SNB-75 CNS = tested on: SNB-75 CNS
NCI-H23 lung = tested on: NCI-H23 lung
HCT-116 colon = tested on: HCT-116 colon
HL-60(TB) leukemia = tested on: HL-60(TB) leukemia
RPMI-8226 leukemia = tested on: RPMI-8226 leukemia
HOP-92 NSCLC = tested on: HOP-92 NSCLC
OVCAR-3 ovarian = tested on: OVCAR-3 ovarian
TK-10 renal = tested on: TK-10 renal
PC-3 prostate = tested on: PC-3 prostate
NCI-H522 lung = tested on: NCI-H522 lung
SK-MEL-28 melanoma = tested on: SK-MEL-28 melanoma
OVCAR-5 ovarian = tested on: OVCAR-5 ovarian
SR leukemia = tested on: SR leukemia
SK-MEL-5 melanoma = tested on: SK-MEL-5 melanoma
786-0 renal = tested on: 786-0 renal
HOP-62 NSCLC = tested on: HOP-62 NSCLC
MALME-3M melanoma = tested on: MALME-3M melanoma
MDA-MB-231 breast = tested on: MDA-MB-231 breast
HS 578T breast = tested on: HS 578T breast
MDA-MB-435 = tested on: MDA-MB-435
SK-MEL-2 melanoma = tested on: SK-MEL-2 melanoma
COLO 205 colon = tested on: COLO 205 colon
EKVX NSCLC = tested on: EKVX NSCLC

Which results are given for `CC1(C)CC[C@]2(C(=O)N3CCOCC3)CC[C@]3(C)C(=CC[C@@H]4[C@@]5(C)CC[C@H](NCO)C(C)(C)[C@@H]5CC[C@]43C)[C@H]2C1`?
GI50 (NCI/ADR-RES ovarian): 1.99 µM; TGI (NCI/ADR-RES ovarian): 7.09 µM; GI50 (SNB-19 CNS): 5.71 µM; TGI (SNB-19 CNS): 11.3 µM; GI50 (OVCAR-8 ovarian): 1.52 µM; TGI (OVCAR-8 ovarian): 6.3 µM; GI50 (RXF 393 renal): 0.886 µM; TGI (RXF 393 renal): 2.69 µM; GI50 (SF-295 CNS): 1.86 µM; TGI (SF-295 CNS): 6.7 µM; GI50 (U251 CNS): 4.14 µM; TGI (U251 CNS): 9.49 µM; GI50 (HCT-15 colon): 0.715 µM; TGI (HCT-15 colon): 1.76 µM; GI50 (M14 melanoma): 4.11 µM; TGI (M14 melanoma): 9.71 µM; GI50 (UACC-257 melanoma): 5.65 µM; TGI (UACC-257 melanoma): 10.7 µM; GI50 (NCI-H226 lung): 6.61 µM; TGI (NCI-H226 lung): 13.6 µM; GI50 (DU-145 prostate): 1.38 µM; TGI (DU-145 prostate): 5.01 µM; GI50 (SK-OV-3 ovarian): 6.81 µM; TGI (SK-OV-3 ovarian): 13.3 µM; GI50 (HT29 colon): 1.96 µM; TGI (HT29 colon): 18.6 µM; GI50 (SN12C renal): 2.36 µM; TGI (SN12C renal): 6.94 µM; GI50 (KM12 colon): 1.14 µM; TGI (KM12 colon): 4.26 µM; GI50 (IGROV1 ovarian): 4.66 µM; TGI (IGROV1 ovarian): 9.78 µM; GI50 (HCC-2998 colon): 0.836 µM; TGI (HCC-2998 colon): 2.31 µM; GI50 (LOX IMVI melanoma): 0.576 µM; TGI (LOX IMVI melanoma): 1.06 µM; GI50 (UO-31 renal): 4.62 µM; TGI (UO-31 renal): 9.34 µM; GI50 (A498 renal): 5.59 µM; TGI (A498 renal): 10.9 µM; GI50 (A549 NSCLC): 1.58 µM; TGI (A549 NSCLC): 7.01 µM; GI50 (SW-620 colon): 0.552 µM; TGI (SW-620 colon): 1.06 µM; GI50 (K-562 leukemia): 0.811 µM; TGI (K-562 leukemia): 33.8 µM; GI50 (CAKI-1 renal): 0.915 µM; TGI (CAKI-1 renal): 2.98 µM; GI50 (ACHN renal): 1.72 µM; TGI (ACHN renal): 6.11 µM; GI50 (CCRF-CEM leukemia): 1.04 µM; TGI (CCRF-CEM leukemia): 3.23 µM; GI50 (OVCAR-4 ovarian): 2.5 µM; TGI (OVCAR-4 ovarian): 7.62 µM; GI50 (UACC-62 melanoma): 5.86 µM; TGI (UACC-62 melanoma): 10.7 µM; GI50 (SF-539 CNS): 1.12 µM; TGI (SF-539 CNS): 4.29 µM; GI50 (BT-549 breast): 6.38 µM; TGI (BT-549 breast): 12.9 µM; GI50 (MDA-MB-468 breast): 0.647 µM; TGI (MDA-MB-468 breast): 1.4 µM; GI50 (T-47D breast): 5.33 µM; TGI (T-47D breast): 15.6 µM; GI50 (MCF7 breast): 0.73 µM; TGI (MCF7 breast): 2.06 µM; GI50 (MOLT-4 leukemia): 0.767 µM; TGI (MOLT-4 leukemia): 2.68 µM; GI50 (NCI-H460 lung): 1.02 µM; TGI (NCI-H460 lung): 3.29 µM; GI50 (SF-268 CNS): 4.78 µM; TGI (SF-268 CNS): 10.4 µM; GI50 (SNB-75 CNS): 4.39 µM; TGI (SNB-75 CNS): 9.51 µM; GI50 (NCI-H23 lung): 3.74 µM; TGI (NCI-H23 lung): 8.72 µM; GI50 (HCT-116 colon): 0.696 µM; TGI (HCT-116 colon): 1.58 µM; GI50 (HL-60(TB) leukemia): 0.484 µM; TGI (HL-60(TB) leukemia): 1.22 µM; GI50 (RPMI-8226 leukemia): 1.42 µM; TGI (RPMI-8226 leukemia): 7.17 µM; GI50 (HOP-92 NSCLC): 5.25 µM; TGI (HOP-92 NSCLC): 11.3 µM; GI50 (OVCAR-3 ovarian): 0.961 µM; TGI (OVCAR-3 ovarian): 3.43 µM; GI50 (TK-10 renal): 7.05 µM; TGI (TK-10 renal): 13.5 µM; GI50 (PC-3 prostate): 4.6 µM; TGI (PC-3 prostate): 10.6 µM; GI50 (NCI-H522 lung): 6.27 µM; TGI (NCI-H522 lung): 13.8 µM; GI50 (SK-MEL-28 melanoma): 5.16 µM; TGI (SK-MEL-28 melanoma): 9.94 µM; GI50 (OVCAR-5 ovarian): 4.47 µM; TGI (OVCAR-5 ovarian): 9.1 µM; GI50 (SR leukemia): 0.682 µM; TGI (SR leukemia): 2.14 µM; GI50 (SK-MEL-5 melanoma): 5.65 µM; TGI (SK-MEL-5 melanoma): 11 µM; GI50 (786-0 renal): 0.596 µM; TGI (786-0 renal): 1.31 µM; GI50 (HOP-62 NSCLC): 8.18 µM; TGI (HOP-62 NSCLC): 18.6 µM; GI50 (MALME-3M melanoma): 5.2 µM; TGI (MALME-3M melanoma): 9.97 µM; GI50 (MDA-MB-231 breast): 1.83 µM; TGI (MDA-MB-231 breast): 5.89 µM; GI50 (HS 578T breast): 5.22 µM; TGI (HS 578T breast): 12.5 µM; GI50 (MDA-MB-435): 0.998 µM; TGI (MDA-MB-435): 5.1 µM; GI50 (SK-MEL-2 melanoma): 5.95 µM; TGI (SK-MEL-2 melanoma): 11.4 µM; GI50 (COLO 205 colon): 0.795 µM; TGI (COLO 205 colon): 1.99 µM; GI50 (EKVX NSCLC): 4.57 µM; TGI (EKVX NSCLC): 10 µM
